Experimental data reported in the supplement of paper PMC10331698.
± gives the standard deviation of the averaged measurements.

Assays:
Test in all cases: level (log10 ratio to DMSO vehicle control); higher = higher biomarker level / cell amount than vehicle control
Conditions in all cases: in DMSO
[1] = compound: O=C(O)C(F)(F)C(F)(F)C(F)(F)C(F)(F)C(F)(F)C(F)(F)C(F)(F)C(F)(F)C(F)(F)C(F)(F)C(F)(F)C(F)(F)C(F)(F)F [Perfluorotetradecanoic acid]
Procedure: (§1)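 BioMAP Diversity Plus panel of 12 human primary cell co-culture systems (3C, 4H, LPS, SAg, BT, BF4T, BE3C, CASM3C, HDF3CGF, KF3CT, MyoF, Mphg). Compounds were added 1 h before stimulation and left for 24 h (MyoF 48 h; BT 72 h for soluble read-outs or 6 d for IgG). Biomarkers were read by ELISA, cytotoxicity by SRB, PBMC viability and proliferation by Alamar Blue. Each well value was divided by the mean of 8 DMSO control wells on the same plate and log10 transformed; duplicate blinded samples were tested at 4 concentrations.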

[2] = compound: O=S(=O)(O)C(F)(F)C(F)(F)C(F)(F)C(F)(F)C(F)(F)C(F)(F)C(F)(F)C(F)(F)F [Potassium perfluorooctanesulfonate]
Procedure: as §1

[3] = compound: O=C(O)C(F)(F)C(F)(F)C(F)(F)C(F)(F)C(F)(F)C(F)(F)C(F)(F)C(F)(F)C(F)(F)C(F)(F)C(F)(F)C(F)(F)F [Perfluorotridecanoic acid]
Procedure: as §1

[4] = compound: O=S(=O)(O)C(F)(F)C(F)(F)C(F)(F)C(F)(F)F [Perfluorobutanesulfonic acid]
Procedure: as §1

[5] = compound: OCC(F)(F)C(F)(F)C(F)(F)C(F)(F)C(F)(F)C(F)F [1H,1H,7H-Dodecafluoro-1-heptanol]
Procedure: as §1

Azathioprine = compound: Cn1cnc([N+](=O)[O-])c1Sc1ncnc2[nH]cnc12 [Azathioprine]
Procedure: as §1

Test System | level (log10) ([1]; 6700 nM) | level (log10) ([1]; 20000 nM) | level (log10) ([2]; 6700 nM) | level (log10) ([2]; 20000 nM) | level (log10) ([2]; 60000 nM) | level (log10) ([3]; 1500 nM) | level (log10) ([3]; 4400 nM) | level (log10) ([3]; 13000 nM) | level (log10) ([3]; 40000 nM) | level (log10) ([4]; 6700 nM) | level (log10) ([4]; 20000 nM) | level (log10) ([4]; 60000 nM) | level (log10) ([5]; 6700 nM) | level (log10) ([5]; 20000 nM) | level (log10) ([5]; 60000 nM) | level (log10) (Azathioprine; 1400 nM) | level (log10) (Azathioprine; 4200 nM) | level (log10) (Azathioprine; 13000 nM) | level (log10) (Azathioprine; 38000 nM)
4H:CCL26/Eotaxin-3 | -0.0595 ± 0.019 | -0.0575 ± 0.047 | 0.0085 ± 0.015 | -0.0495 ± 0.021 | -0.0665 ± 0.037 | -0.0145 ± 0.018 | -0.0395 ± 0.033 | -0.056 ± 0.0071 | -0.0655 ± 0.033 | -0.0025 ± 0.054 | -0.001 ± 0.051 | -0.048 ± 0.028 | -0.0075 ± 0.0078 | -0.023 ± 0.0042 | -0.0155 ± 0.022 | 0.016 ± 0.0099 | -0.009 ± 0.021 | -0.003 ± 0.011 | -0.0255 ± 0.035
4H:CD62P/P-selectin | 0.0015 ± 0.011 | 0.0055 ± 0.021 | 0.0375 ± 0.015 | 0.085 ± 0.0042 | 0.086 ± 0.027 | -0.0285 ± 0.016 | -0.017 ± 0.0085 | 0.0125 ± 0.013 | 0.021 ± 0.011 | -0.0155 ± 0.035 | 0.0045 ± 0.016 | -0.0085 ± 0.015 | -0.003 ± 0.078 | 0.051 ± 0.067 | 0.032 ± 0.016 | -0.019 ± 0.062 | -0.007 ± 0.031 | -0.0075 ± 0.036 | -0.108 ± 0.011
4H:CD87/uPAR | -0.0495 ± 0.097 | -0.0345 ± 0.14 | 0.0655 ± 0.044 | 0.037 ± 0.033 | 0.082 ± 0.058 | 0.0035 ± 0.028 | -0.03 ± 0.017 | -0.0175 ± 0.015 | -0.0515 ± 0.074 | 0.0115 ± 0.052 | 0.0235 ± 0.022 | 0.025 ± 0.021 | 0.016 ± 0.014 | 0.001 ± 0.014 | -0.019 ± 0.031 | 0.0045 ± 0.018 | -0.03 ± 0.035 | -0.0015 ± 0.00071 | 0.0315 ± 0.00071
4H:CD106/VCAM-1 | -0.0805 ± 0.037 | -0.0775 ± 0.0078 | 0.0085 ± 0.028 | -0.004 ± 0.016 | -0.0095 ± 0.023 | -0.028 ± 0.0071 | -0.065 ± 0.04 | -0.107 ± 0.0064 | -0.089 ± 0.018 | -0.024 ± 0.016 | -0.029 ± 0.028 | 0.001 ± 0.033 | 0.009 ± 0.034 | -0.016 ± 0.0085 | -0.0125 ± 0.0092 | -0.024 ± 0.017 | -0.0205 ± 0.025 | -0.0655 ± 0.015 | -0.132 ± 0.044
4H:SRB | -0.014 ± 0.028 | -0.0155 ± 0.063 | -0.0105 ± 0.011 | 0.004 ± 0.024 | -0.0095 ± 0.023 | -0.0115 ± 0.0064 | -0.022 ± 0.0014 | -0.054 ± 0.042 | -0.443 ± 0.037 | 0.0005 ± 0.0064 | 0.002 ± 0.0028 | 0 ± 0.0099 | -0.0055 ± 0.028 | -0.0215 ± 0.012 | -0.0075 ± 0.029 | -0.0135 ± 0.0092 | -0.0075 ± 0.005 | -0.015 ± 0.0085 | -0.0485 ± 0.019
4H:VEGFR2 | 0.075 ± 0.11 | 0.084 ± 0.09 | 0.0245 ± 0.0021 | 0.01 ± 0.024 | 0.027 ± 0.0099 | 0.0375 ± 0.0078 | -0.0205 ± 0.037 | -0.0125 ± 0.1 | -0.257 ± 0.1 | -0.049 ± 0.04 | -0.0215 ± 0.026 | -0.012 ± 0.0071 | -0.011 ± 0.044 | 0.0075 ± 0.061 | 0.014 ± 0.03 | -0.0045 ± 0.012 | 0.0015 ± 0.047 | -0.0195 ± 0.0078 | 0.0155 ± 0.06
BE3C:CD54/ICAM-1 | -0.003 ± 0.025 | 0.015 ± 0.062 | 0.027 ± 0.0028 | 0.074 ± 0.024 | 0.0575 ± 0.0064 | 0.0015 ± 0.04 | -0.0285 ± 0.015 | -0.011 ± 0.0085 | 0.0035 ± 0.0021 | -0.0185 ± 0.0021 | -0.009 ± 0.0028 | -0.021 ± 0.0057 | 0.0205 ± 0.029 | 0.01 ± 0.027 | 0.0145 ± 0.012 | 0 ± 0.018 | -0.0115 ± 0.013 | -0.0075 ± 0.0078 | -0.001 ± 0.031
BE3C:CD87/uPAR | 0.015 ± 0.034 | 0.065 ± 0.05 | 0.0335 ± 0.022 | 0.081 ± 0.054 | 0.14 ± 0.025 | 0.012 ± 0.038 | -0.013 ± 0.0071 | 0.006 ± 0.018 | 0.0335 ± 0.03 | -0.035 ± 0.0028 | -0.044 ± 0.016 | -0.037 ± 0.027 | 0.018 ± 0.033 | 0.011 ± 0.0028 | 0.013 ± 0.011 | 0.0185 ± 0.029 | -0.014 ± 0.0042 | -0.0175 ± 0.057 | -0.0435 ± 0.063
